Test results published in patent publication US20120232113A1, “METHODS OF TREATING EMESIS USING GROWTH HORMONE SECRETAGOGUES” (HELSINN THERAPEUTICS (U.S.), INC., priority 2007, published 2012).
Square brackets hold non-standard residues; d marks the D form. Ends that are not written are not given here. Peptide text beside a SMILES is read from it. d2Nal = N[C@H](Cc1ccc2ccccc2c1)C(=O)O; Aib = CC(C)(N)C(=O)O

Assays:
[1] = system: ferrets treated with cisplatin; assay: Anti-emetic response assay in ferrets treated with cisplatin; format: in vivo, ferret; details: for average vomiting episodes during the 4-hour observation period / average retching episodes during the 4-hour observation period: cisplatin 10 mg/kg i.p., two i.v. injections 30 min apart, ghrelin 0.25, ipamorelin 1.0 mg/kg/dose; for average vomiting episodes during the 4-hour observation period: saline control 1.78; for average retching episodes during the 4-hour observation period: saline control 4.89; for anti-emetic efficacy relative to control animals, conclusion in words: i.v., ghrelin 0.25 mg/kg/dose, ipamorelin 1.0 mg/kg/dose; for onset time of emetic response following cisplatin administration (latent period): vs saline control, 4-hour observation
Text: The purpose of this study was to evaluate the anti-emetic response of Ipamorelin following a single intravenous injection (slow bolus) in ferrets treated with cisplatin.
30 male ferrets (24-weeks old) were used in this experiment. Subsequent to arrival, all animals were subjected to a general physical examination by a qualified member of the veterinary staff to ensure normal health status. An acclimation period of at least one week was allowed between the animal receipt and the start of treatment in order to accustom the animals to the laboratory environment.
Animals were randomized into the following groups:
Dosing occurred on consecutive days with approximately equal numbers of animals from each group being dosed on each day. Immediately following a single intraperitoneal injection of cisplatin, the controUreference/test article was administered via a slow intravenous injection via the cephalic or saphenous vein. Thirty minutes later, a second slow intravenous injection of the controUreference/test article was administered via a slow intravenous injection via the cephalic or saphenous vein. On each occasion, the dose volume was 5 mL/kg (cisplatin as well as control/reference/test article) and the actual dose administered was based on the most recent practical body weight of each animal.
Following dosing, the ferrets were monitored and observed for episodes of emesis for an approximate four hour period, which was subdivided into 10-minute intervals. The time prior to the first episode of retching or vomiting was recorded (latent period), as well the total number of retching and vomiting periods, over each 10-minute interval, through the overall observation period (4 hours post dose).
For the purposes of this study, episodes of emesis were defined as rhythmic abdominal contractions associated with oral expulsion of solid or liquid material from the gastrointestinal tract (i.e. vomiting) or not associated with the passage of material (i.e. retching). An episode of retching and/or vomiting was considered separate when an animal changed position in the cage or when the interval between retches and/or vomits exceeds an approximate 5 second period.
The anti-emetic response was evaluated using the individual observation for: the latent period, the average of retching episodes per 10-minute interval with presence of retching, the average of vomiting episodes per 10-minute interval with presence of vomiting, the total frequency of retching episodes for the observation period, the total frequency of vomiting episodes for the observation period, the total number of 10-minute intervals with presence of retching and the total number of 10-minute intervals with presence of vomiting. Whenever there was no retching or vomiting episode for the whole animal observation period, the latent period was set to 4 hours and the average of retching/vomiting episodes per interval with presence of retching/vomiting was set to zero. Each of these seven parameters was submitted to the following statistical comparison.
The non-parametric Kruskal-Wallis test was used to compare all considered groups. If the Kruskal-Wallis test was significant (p<0.05), then the Saline Control group was compared to each treated group using Dunn's test.

cancer patients [2] = assay: 12 week double blind, placebo controlled, randomized parallel study, Anderson Symptom Assessment System (ASAS) test; format: in vivo, human; details: 12 weeks
Text: A double blind, placebo controlled, randomized study was designed to investigate the ability of growth hormone secretagogues to be used for the treatment of emetic conditions.
82 human subjects were enrolled in a 12 week parallel study. Of the 82 subjects, 74 subjects were classified in the intent to treat group (ITT). These 74 subjects all had active cancer, received at least one dose of study medication, and had at least one post-dose efficacy measurement. The 74 subjects were separated into two groups: the placebo group and the RC-1291 group. 30 of the 36 placebo group subjects and 33 of the 38 RC-1291 group subjects were receiving some form of chemotherapy. The RC-1291 group received 50 mg of RC-1291 in two 25 mg capsules daily. The placebo group received two capsules daily.
The effect of RC-1291 administered to cancer patients was compared to the effect of placebo administered to a similar group of patients. In order to determine the ability of RC-1291 to reduce a subject's cancer symptom burden, i.e. Quality-of-Life, subjects were administered the Anderson Symptom Assessment System (ASAS) test prior to, during and at the completion of the study. The ASAS test is conducted by asking subjects to rate on a 0-10 scale the severity of 10 symptoms: pain, fatigue, nausea, depression, anxiety, drowsiness, shortness of breath, appetite, sleep and feeling of well being (see, Palmer et al. (2005) J. Pain and Symptom Management 6:565-571). The text below reflects and inversion of the ASAS scores such that higher values reflect a better Quality-of-Life: […]

cancer patients [3] = assay: Separate crossover study (3 days treatment), ASAS nausea symptom scale; format: in vivo, human
Procedure: The effect of RC-1291 administered to cancer patients was compared to the effect of placebo administered to a similar group of patients. In order to determine the ability of RC-1291 to reduce a subject's cancer symptom burden, i.e. Quality-of-Life, subjects were administered the Anderson Symptom Assessment System (ASAS) test prior to, during and at the completion of the study. The ASAS test is conducted by asking subjects to rate on a 0-10 scale the severity of 10 symptoms: pain, fatigue, nausea, depression, anxiety, drowsiness, shortness of breath, appetite, sleep and feeling of well being (see, Palmer et al. (2005) J. Pain and Symptom Management 6:565-571). The text below reflects and inversion of the ASAS scores such that higher values reflect a better Quality-of-Life:
In a separate crossover study, 16 cancer patients were treated with RC-1291 or placebo as described above for 3 days, washed out for ˜5 days and then administered placebo or RC-1291 (whichever one they had not received in the initial 3 day period). 12 of 16 placebo group subjects and 11 of the 16 RC-1291 group subjects were receiving some form of chemotherapy.

Row | Compound | average vomiting episodes during the 4-hour observation period [1] | average retching episodes during the 4-hour observation period [1] | anti-emetic efficacy relative to control animals, conclusion in words [1] | reduction in number of retching episodes compared to saline control animals ([1]; ipamorelin 1.0 mg/kg/dose i.v., p<0.05) [%] | reduction in vomiting episodes relative to saline control animals ([1]; ipamorelin 1.0 mg/kg/dose i.v., p>0.05) | onset time of emetic response following cisplatin administration (latent period) [1] | increase in total ASAS score relative to baseline (cancer patients [2]; 50 mg daily in two 25 mg capsules, inverted ASAS scores (higher = better Quality-of-Life), placebo decrease of 5.13) | overall difference in total ASAS score between the two groups (cancer patients [2]; RC-1291 50 mg daily vs placebo, p-0.0287) | ASAS nausea symptom scale, overall difference between treatment groups (cancer patients [2]; RC-1291 50 mg daily vs placebo, p=0.0046) | onset of anti-nausea effects (cancer patients [3]) [days] | ASAS nausea symptom scale, overall difference between treatments (cancer patients [3]; RC-1291 vs placebo, p=0.0756) | nausea (ASAS nausea symptom scale), result in words (cancer patients [3]; increased nausea with placebo)
1 | CC(C)(N)C(=O)N[C@@H](Cc1c[nH]cn1)C(=O)N[C@H](Cc1ccc2ccccc2c1)C(=O)N[C@H](Cc1ccccc1)C(=O)N[C@@H](CCCCN)C(N)=O [Ipamorelin] (H-[Aib]H[d2Nal][dF]K-NH2) | 0.75 | 1.14 | significantly decreased the number of retching episodes | 82 | failed to reach statistical significance | modest, non-statistically significant (p>0.05) delay |  |  |  |  |  | 
2 | CN(C)N(C)C(=O)[C@@]1(Cc2ccccc2)CCCN(C(=O)[C@@H](Cc2c[nH]c3ccccc23)NC(=O)C(C)(C)N)C1 [RC-1291] |  |  |  |  |  |  | 1.52 | 6.66 | 1.46 | ≤ 3 | 0.71 | Decreased nausea
3 | Ghrelin: ghrelin peptide, reference article in the ferret study (GSSFLSPEHQRVQQRKESKKPPAKLQPR; ends and bridges not checked; UniProt Q9UBU3 24-51, looked up) [reference compound] | 1.60 | 7.00 | did not display a significant efficacy |  |  | Neither the onset time nor the numbers of retches or vomits were statistically different |  |  |  |  |  | 
